Data taken from US7422854B1, “Cholesterol reduction signature” (priority 2002, dated 2008).

How the values were obtained:
male Sprague-Dawley rats = test: Cholesterol Lowering Index: total blood cholesterol (clinical chemistry) in treated versus vehicle-treated rats; format: in vivo, rat; conditions: for Chol index (fold reduction) / Cholesterol Index (fold reduction): male rats; for Chol index (fold reduction): vs vehicle; for reduction in cholesterol: extremes of the twenty treatments of table 1, treated versus untreated rats; for Cholesterol Index (fold reduction): Table 4
Source text: Compound dosing was based on the acute dose LD50s recorded in published reference or literature sources. […] The MTD (maximum tolerated dose) was then selected as the dose at which the animals […] 5-10% body weight during the 5-day range finding study. […] In addition, the clinical observations must show no or mild clinical signs during the whole of the range-finding study. At the next highest dose, signs and symptoms of adverse effects and exceeding those of the MTD should be seen to occur. Should these criteria not be met, the range-finding study is repeated using a modified dose range.
(§1) After determination of the MTD and FED for a compound, each compound was dissolved in a vehicle for administration on day 1 of the study (additional daily doses were stored as frozen aliquots from this initial formulation). Each compound was administered to three individual male Sprague-Dawley rats for each of the two doses (MTD and FED) for one of four different times (0.25 day, 1 day, 3 days, and 5 days), yielding a total of up to 24 animals per compound study. Vehicle choice was based on solubility of the compound, effect of food on adsorption, and the vehicles used in the literature reports examined during the FED selection investigations, described above. Generally, the route and vehicle in which the FED was defined are used. When there was a choice of routes and vehicles, oral routes were chosen over injection routes. Many compounds, especially oncolytics, are only administerable intravenously. In such cases, the compound was administered as an intravenous formulation into the tail vein. Orally administered compounds were given dissolved in either water, 1% carboxymethycellulose (CMC) or corn oil. Intravenously and intraperitoneally administered compounds were given in 0.9% saline. Subcutaneously administered compounds were given in corn oil. Animal body weights were determined at 1 day and, where appropriate, at 4 days, before necropsy, and clinical observations were made on a daily basis. Control animals were dosed with vehicle only. Three male animals were used for each dose and time combination used for the compound treatment.
(§2) Tissue harvest and handling: After the allocated treatment time, the tissues from the animals were harvested. […] All the tissues collected were divided to provide samples for histopathological analyses, and the remainder of each tissue was then snap-frozen. […] The following blood constituents were measured: Blood Urea Nitrogen (BUN), Creatinine (CRE), Glucose (GLU), Alanine Transaminase (ALT), Aspartate Aminotrans-ferase (AST), Alkaline Phosphatase (ALP), Total Bilirubin (TBI), Sodium (SOD), Potassium (POT), Chloride (CHL), Phosphorus (PHO), Total Protein (TPR), Albumin (ALB), Cholesterol (CHO), Creatine Phosphokinase (CPK), Lactate Dehydrogenase (LDH), Carbon Dioxide (CO2), Uric Acid (UA), and Lipase. […] The parameters were measured using a Baker 9000 blood cell analysis instrument according to the manufactures instructions. The following blood constituents were measured: Leukocyte count (WBC), Differential Leukocyte counts, Erythrocyte count (RBC), Hemoglobin concentration (HGB), Hematocrit (HCT), Mean Corpuscular Volume (MCV), Mean Corpuscular Hemoglobin (MCH), Mean Corpuscular Hemoglobin Concentration (MCC), Thrombocyte Count (PLC). Histopathology: Histopathological analyses of hematoxylin and eosin-stained tissue sections were performed and peer-reviewed by board-certified (Diplomate, American College of Veterinary Pathologists) veterinary pathologists. Preparation of Enriched mRNA: Punch Biopsies were Taken from the Frozen Tissues and were completely homogenized before being processed using the MagNA Pure robot. (Roche Diagnostics Corp., Indianapolis, Ind.) in combination with the MagNA Pure LC RNA Isolation kit II (Roche Diagnostics Corp).

livers of rats = test: Signature Projection Score (SPS): match of liver gene expression to the Cholesterol Reduction Signature; format: in vivo; conditions: rat liver, maximum of training treatments = 100
Experimental: as §1
as §2, with “Corp). The amount of lysis buffer was adjusted to allow 1 ml per 50 mg for liver tissue, or 1 ml per 80 mg for all other tissues. After complete homogenization and before loading of the samples into the 32-well MagNA Pure plate, the samples were syringed 5-6 times using a 20-gauge 3-ml syringe to ensure a smooth solution for robotic processing. Tissue sample processing was performed in duplicate wells (loading 150 μl of homogenized sample and 150 μl of additional lysis buffere to each well) of the MagNA Pure LC, which is programmed to extract mRNA using oligo-dT selection technology into a final elution volume of 100 μl. Poly A(+) RNA sample concentration was performed using a standard ethanol precipitation protocol in the presence of glycogen (50 μg/ml).” for “Corp).”

rat = conditions: ovarectomized female rats; cited from earlier work

## CC[C@H](C)C(=O)O[C@H]1C[C@@H](C)C=C2C=C[C@H](C)[C@H](CC[C@@H]3C[C@@H](O)CC(=O)O3)[C@H]21 (relative stereo) [LOVASTATIN, (1S-(1α(R*),3α,7β,8β(2S*,4S*)-8αβ)-2-methylbutanoic acid 1,2,3,7,8,8a-hexahydro-3,7-dimethyl-8-(2-(tetrahydro-4-hydroxy-6-oxo-2H-pyran-2-yl)ethyl)-1-naphthalenyl ester]
Male Sprague-Dawley rats; dose 450, time 5 days
  Chol index (fold reduction): 2.39 fold reduction
Male Sprague-Dawley rats
  reduction in cholesterol: 2 fold

## C[C@]12CC[C@@H]3c4ccc(OC(=O)c5ccccc5)cc4CC[C@H]3[C@@H]1CC[C@@H]2O [BETA-ESTRADIOL 3-BENZOATE]
Male Sprague-Dawley rats; dose 2, time point 3 days
  Cholesterol Index (fold reduction): 2.0 fold reduction
Livers of rats; dose 2 (mg/ml), time point 3 days
  SPS: 46.4

## C[C@]12CC[C@@H]3c4ccc(O)cc4CC[C@H]3[C@@H]1CC[C@@H]2O [BETA-ESTRADIOL, (17β)-estra-1,3,5(10)-triene-3,17-diol]
Male Sprague-Dawley rats; dose 150, time point 3 days
  Cholesterol Index (fold reduction): 3.1 fold reduction
Male Sprague-Dawley rats; dose 150, time point 5 days
  Cholesterol Index (fold reduction): 4.7 fold reduction
Male Sprague-Dawley rats; dose 150, time 3 days
  Chol index (fold reduction): 3.21 fold reduction
Male Sprague-Dawley rats; dose 150, time 5 days
  Chol index (fold reduction): 4.94 fold reduction
Livers of rats; dose 150 (mg/ml), time point 1 day
  SPS: 53
Livers of rats; dose 150 (mg/ml), time point 3 days
  SPS: 63.4
Livers of rats; dose 150 (mg/ml), time point 5 days
  SPS: 63.7

## CCOC(=O)C(C)(C)Oc1ccc(Cl)cc1 [CLOFIBRATE, 2-(4-chlorophenoxy)-2-methylpropanoic acid ethyl ester]
Male Sprague-Dawley rats; dose 500, time 3 days
  Chol index (fold reduction): 2.43 fold reduction

## C[C@@H]1C[C@H]2[C@@H]3CCC4=CC(=O)C=C[C@]4(C)[C@@]3(F)[C@@H](O)C[C@]2(C)[C@@]1(O)C(=O)CO [DEXAMETHASONE]
Male Sprague-Dawley rats; dose 1, time point 3 days
  Cholesterol Index (fold reduction): 0.9 fold reduction
Livers of rats; dose 1 (mg/ml), time point 3 days
  SPS: 49.5

## CC/C(=C(/CC)c1ccc(O)cc1)c1ccc(O)cc1 [DIETHYLSTILBESTROL, 3,4-bis-(4-hydroxyphenyl)-3-hexene]
Male Sprague-Dawley rats; dose 2.8, time point 3 days
  Cholesterol Index (fold reduction): 3.0 fold reduction
Male Sprague-Dawley rats; dose 2.8, time point 5 days
  Cholesterol Index (fold reduction): 3.4 fold reduction
Male Sprague-Dawley rats; dose 2.8, time 3 days
  Chol index (fold reduction): 3.10 fold reduction
Male Sprague-Dawley rats; dose 2.8, time 5 days
  Chol index (fold reduction): 3.56 fold reduction
Livers of rats; dose 2.8 (mg/ml), time point 1 day
  SPS: 57.3
Livers of rats; dose 2.8 (mg/ml), time point 3 days
  SPS: 71.2
Livers of rats; dose 2.8 (mg/ml), time point 5 days
  SPS: 80.9
Livers of rats; dose 300 (mg/ml), time point 1 day
  SPS: 59
Livers of rats; dose 300 (mg/ml), time point 3 days
  SPS: 83.3
Livers of rats; dose 300 (mg/ml), time point 5 days
  SPS: 91.1

## C[C@]12CC[C@@H]3c4ccc(O)cc4CC[C@H]3[C@@H]1C[C@@H](O)[C@@H]2O [ESTRIOL, (16α, 17β)-estra-1,3,5(10)-triene-3,16,17-triol]
Male Sprague-Dawley rats; dose 313, time point 3 days
  Cholesterol Index (fold reduction): 3.2 fold reduction
Male Sprague-Dawley rats; dose 313, time point 5 days
  Cholesterol Index (fold reduction): 20.9 fold reduction
Male Sprague-Dawley rats; dose 313, time 3 days
  Chol index (fold reduction): 3.30 fold reduction
Male Sprague-Dawley rats; dose 313, time 5 days
  Chol index (fold reduction): 20.28 fold reduction
Male Sprague-Dawley rats
  reduction in cholesterol: 20 fold
Livers of rats; dose 313 (mg/ml), time point 1 day
  SPS: 51.5
Livers of rats; dose 313 (mg/ml), time point 3 days
  SPS: 65.1
Livers of rats; dose 313 (mg/ml), time point 5 days
  SPS: 83.4

## OC(Cn1cncn1)(Cn1cncn1)c1ccc(F)cc1F [FLUCONAZOLE, α-(2,4-difluorophenyl)-α-(1H-1,2,4-triazol-1-ylmethyl)-1H-1,2,4-triazole-1-ethanol]
Male Sprague-Dawley rats; dose 394, time point 5 days
  Cholesterol Index (fold reduction): 3.7 fold reduction
Male Sprague-Dawley rats; dose 394, time 5 days
  Chol index (fold reduction): 3.94 fold reduction
Livers of rats; dose 394 (mg/ml), time point 5 days
  SPS: 59.7

## C#C[C@]1(OC(C)=O)CC[C@H]2[C@@H]3CCC4=CC(=O)CC[C@@H]4[C@H]3CC[C@@]21C [NORETHINDRONE ACETATE]
Male Sprague-Dawley rats; dose 125, time point 3 days
  Cholesterol Index (fold reduction): 2.0 fold reduction
Male Sprague-Dawley rats; dose 125, time point 5 days
  Cholesterol Index (fold reduction): 4.0 fold reduction
Male Sprague-Dawley rats; dose 125, time 5 days
  Chol index (fold reduction): 4.07 fold reduction
Livers of rats; dose 125 (mg/ml), time point 1 day
  SPS: 58.8
Livers of rats; dose 125 (mg/ml), time point 3 days
  SPS: 81.6
Livers of rats; dose 125 (mg/ml), time point 5 days
  SPS: 80.7

## C#C[C@]1(O)CC[C@H]2[C@@H]3CCC4=CC(=O)CC[C@@H]4[C@H]3CC[C@@]21C [NORETHINDRONE, (17α)-17-hydroxy-19-norpregn-4-en-20-yn-3-one]
Male Sprague-Dawley rats; dose 375, time point 3 days
  Cholesterol Index (fold reduction): 3.5 fold reduction
Male Sprague-Dawley rats; dose 375, time 3 days
  Chol index (fold reduction): 3.56 fold reduction
Male Sprague-Dawley rats; dose 375, time 5 days
  Chol index (fold reduction): 3.06 fold reduction

## O=C(c1ccc(OCCN2CCCCC2)cc1)c1c(-c2ccc(O)cc2)sc2cc(O)ccc12 [RALOXIFENE, [6-hydroxy-2-(4-hydroxyphenyl)-3-(4-[2-piperidin-1-yl)ethoxy]benzoyl)-benzo[b]thiene]
Male Sprague-Dawley rats; dose 6.5, time 5 days
  Chol index (fold reduction): 2.61 fold reduction
rat
  effect on cholesterol: lower cholesterol
